Assay results reported in the supplement of paper PMC11061612.

Assays:
Test in all cases: Bliss excess, mean over the matrix (fraction); higher = more synergy
[1] = tested on: NUGC-4 (Gastric Carcinoma)
Procedure, shortened: (§1)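 Bliss excess equals the observed combination effect minus the expected value EA + EB − EA·EB, where EA and EB are the effects of each agent alone. Combination Emax is the second-highest inhibition within the matrix. Inhibition was scaled from CellTiter-Glo 2.0 luminescence, with 0 set by vehicle wells and 1 by blank wells, after 72 hours of two-drug dosing of cells plated in 1536-well plates.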

[2] = tested on: KMRC-20 (Kidney Carcinoma)
Procedure, shortened: as §1

[3] = tested on: FTC-133 (Thyroid Gland Carcinoma)
Procedure, shortened: as §1

[4] = tested on: NCI-H1568 (Lung Adenocarcinoma)
Procedure, shortened: as §1

[5] = tested on: SW1710 (Bladder Carcinoma)
Procedure, shortened: as §1

[6] = tested on: WSU-NHL (B-Cell Non-Hodgkin's Lymphoma)
Procedure, shortened: as §1

[7] = tested on: BFTC-909 (Kidney Carcinoma)
Procedure, shortened: as §1

KS-1 (Glioblastoma) = tested on: KS-1 (Glioblastoma)
Procedure, shortened: as §1

[8] = tested on: ESS-1 (Other Solid Carcinomas)
Procedure, shortened: as §1

[9] = tested on: OE21 (Esophageal Squamous Cell Carcinoma)
Procedure, shortened: as §1

[10] = tested on: MHH-CALL-2 (B-Lymphoblastic Leukemia)
Procedure, shortened: as §1

LOXIMVI (Melanoma) = tested on: LOXIMVI (Melanoma)
Procedure, shortened: as §1

[11] = tested on: YAPC (Pancreatic Carcinoma)
Procedure, shortened: as §1

[12] = tested on: Detroit562 (Head and Neck Carcinoma)
Procedure, shortened: as §1

[13] = tested on: TGBC1TKB (Biliary Tract Carcinoma)
Procedure, shortened: as §1

[14] = tested on: KYAE-1 (Esophageal Adenocarcinoma)
Procedure, shortened: as §1

[15] = tested on: OVCAR-5 (Ovarian Carcinoma)
Procedure, shortened: as §1

[16] = tested on: SNU-16 (Gastric Carcinoma)
Procedure, shortened: as §1

[17] = tested on: CAL-33 (Oral Cavity Carcinoma)
Procedure, shortened: as §1

[18] = tested on: SAS (Oral Cavity Carcinoma)
Procedure, shortened: as §1

Row | Structure (SMILES) | Bliss excess [1] | Bliss excess [2] | Bliss excess [3] | Bliss excess [4] | Bliss excess [5] | Bliss excess [6] | Bliss excess [7] | Bliss excess (KS-1 (Glioblastoma)) | Bliss excess [8] | Bliss excess [9] | Bliss excess [10] | Bliss excess (LOXIMVI (Melanoma)) | Bliss excess [11] | Bliss excess [12] | Bliss excess [13] | Bliss excess [14] | Bliss excess [15] | Bliss excess [16] | Bliss excess [17] | Bliss excess [18]
1 | COc1nnc2ccc(N3CCC(c4ccc(OCCN5CCN(C)C(=O)[C@H]5C)cc4)CC3)nn12 [AZD5153] + C[C@@H]1COCCN1C2=NC(=NC(=C2)C3(CC3)[S@](=N)(=O)C)C4=C5C=CNC5=NC=C4 [AZD6738] (first compound max 1 µM, 7x7, partner max 10 µM) | 0.0188 | 0.0821 | 0.0856 | -0.0822 | 0.0013 | -0.0621 | -0.0072 | -0.0349 | -0.0192 | -0.0266 | -0.0397 | -0.0413 | 0.0088 | -0.0241 | 0.0016 | -0.003 | -0.0276 | -0.0408 | -0.031 | -0.0483
2 | COc1nnc2ccc(N3CCC(c4ccc(OCCN5CCN(C)C(=O)[C@H]5C)cc4)CC3)nn12 [AZD5153] + Cc1c2c(nn1C)CSCc1cc(n(C)n1)CSc1cc(c3ccccc3c1)OCCCc1c(C(=O)O)n(C)c3c-2c(Cl)ccc13 [AZD5991] (first compound max 1 µM, 7x7, partner max 1 µM) | 0.0081 | -0.0135 | -0.0112 | -0.0309 | -0.0389 | 0.01 | -0.0034 | -0.0479 | 0.0032 | -0.0089 | 0.002 | 0.0393 | -0.0355 | -0.0459 | 0.0069 | -0.0291 | -0.043 | 0.0403 | 0.0009 | -0.0191
3 | COc1nnc2ccc(N3CCC(c4ccc(OCCN5CCN(C)C(=O)[C@H]5C)cc4)CC3)nn12 [AZD5153] + Cn1cnc2c(F)c(Nc3ccc(Br)cc3Cl)c(C(=O)NOCCO)cc21 [Selumetinib] (first compound max 1 µM, 7x7, partner max 10 µM) | 0.0186 | -0.08 | -0.0539 | -0.0099 | -0.0433 | 0.0023 | -0.0399 | 0.0982 | -0.0065 | 0.0032 | -0.0438 | -0.0679 | 0.0121 | -0.0316 | 0.0517 | -0.004 | -0.0429 | -0.0058 | 0.0584 | 0.0163
4 | Cc1c2c(nn1C)CSCc1cc(n(C)n1)CSc1cc(c3ccccc3c1)OCCCc1c(C(=O)O)n(C)c3c-2c(Cl)ccc13 [AZD5991] + C1CN(CCC1(C(=O)N[C@@H](CCO)C2=CC=C(C=C2)Cl)N)C3=NC=NC4=C3C=CN4 [Capivasertib] (first compound max 1 µM, 7x7, partner max 3 µM) | -0.0228 | -0.0163 | 0.0062 | -0.012 | -0.0407 | -0.0777 | 0.0265 | -0.0181 | -0.0113 | 0.0577 | 0.0182 | -0.0067 | -0.0095 | -0.0269 | -0.0159 | -0.0194 | -0.0337 | -0.0001 | 0.0067 | -0.0165
5 | Cc1c2c(nn1C)CSCc1cc(n(C)n1)CSc1cc(c3ccccc3c1)OCCCc1c(C(=O)O)n(C)c3c-2c(Cl)ccc13 [AZD5991] + C=CCn1c(=O)c2cnc(Nc3ccc(N4CCN(C)CC4)cc3)nc2n1-c1cccc(C(C)(C)O)n1 [AZD1775] (first compound max 1 µM, partner max 1 µM) | -0.0128 | -0.0011 | 0.0172 | 0.0349 | -0.0257 | -0.0459 | 0.0639 | -0.0553 | -0.0715 | -0.0135 | 0.0108 | -0.029 | 0.0258 | 0.0261 | 0.0066 | -0.0078 | -0.0096 | 0.0049 | -0.0275 | -0.0144
6 | Cc1c2c(nn1C)CSCc1cc(n(C)n1)CSc1cc(c3ccccc3c1)OCCCc1c(C(=O)O)n(C)c3c-2c(Cl)ccc13 [AZD5991] + CC1(C)CCC(CN2CCN(c3ccc(C(=O)NS(=O)(=O)c4ccc(NCC5CCOCC5)c([N+](=O)[O-])c4)c(Oc4cnc5[nH]ccc5c4)c3)CC2)=C(c2ccc(Cl)cc2)C1 [Venetoclax] (first compound max 1 µM, 7x7, partner max 1 µM) | -0.0621 | -0.0206 | -0.0233 | -0.0334 | -0.019 | 0.0602 | -0.0001 | -0.0307 | -0.0082 | 0.0182 | 0.0043 | -0.0182 | -0.0318 | -0.0119 | -0.0252 | 0.0049 | -0.0365 | 0.0558 | 0.0122 | 0.0098
7 | Cc1c2c(nn1C)CSCc1cc(n(C)n1)CSc1cc(c3ccccc3c1)OCCCc1c(C(=O)O)n(C)c3c-2c(Cl)ccc13 [AZD5991] + CN(C)CCCOc1ccc(-c2ccc3ncc4c(c3c2)n(C2CCOCC2)c(=O)n4C)cn1 [AZD0156] (first compound max 1 µM, 7x7, partner max 1 µM) | -0.0305 | -0.0036 | -0.0105 | -0.0091 | -0.0134 | -0.0375 | 0.0101 | -0.0619 | 0.0027 | 0.0133 | 0.0053 | 0.0016 | 0.0081 | -0.0251 | -0.0332 | -0.0009 | -0.024 | 0.0313 | 0.0215 | 0.0142
8 | Cc1c2c(nn1C)CSCc1cc(n(C)n1)CSc1cc(c3ccccc3c1)OCCCc1c(C(=O)O)n(C)c3c-2c(Cl)ccc13 [AZD5991] + C[C@@H]1COCCN1C2=NC(=NC(=C2)C3(CC3)[S@](=N)(=O)C)C4=C5C=CNC5=NC=C4 [AZD6738] (first compound max 1 µM, 7x7, partner max 10 µM) | 0.02 | -0.0153 | 0.0969 | 0.0409 | 0.0299 | -0.0352 | 0.0508 | 0.0147 | -0.0451 | 0.0157 | 0.0225 | -0.0373 | 0.0715 | 0.0364 | 0.0537 | 0.0054 | -0.0248 | 0.0167 | 0.0008 | -0.0367
9 | Cc1c2c(nn1C)CSCc1cc(n(C)n1)CSc1cc(c3ccccc3c1)OCCCc1c(C(=O)O)n(C)c3c-2c(Cl)ccc13 [AZD5991] + C[C@@H](Nc1cc(F)cc(F)c1)c1cc(C(=O)N(C)C)cc2c(=O)cc(N3CCOCC3)oc12 [AZD8186] (first compound max 1 µM, 7x7, partner max 3 µM) | -0.0056 | 0.0456 | -0.0065 | 0.0126 | -0.0083 | -0.0366 | 0.0188 | -0.0129 | -0.045 | 0.0258 | -0.0188 | -0.0227 | -0.0159 | 0.0065 | -0.0236 | -0.0125 | -0.0106 | 0.0087 | -0.0099 | 0.0062
10 | Cc1c2c(nn1C)CSCc1cc(n(C)n1)CSc1cc(c3ccccc3c1)OCCCc1c(C(=O)O)n(C)c3c-2c(Cl)ccc13 [AZD5991] + Cc1cc2ncnn2cc1Nc1ncc2c(n1)n(C1CCOCC1)c(=O)n2C [AZD7648] (first compound max 1 µM, 7x7, partner max 10 µM) | -0.0498 | -0.0036 | -0.0322 | -0.0717 | -0.0209 | -0.0594 | 0.0101 | -0.0797 | -0.0292 | -0.0387 | -0.011 | 0.0193 | 0.0003 | -0.0172 | -0.0115 | -0.0285 | -0.0913 | 0.0284 | -0.0341 | -0.0078
11 | Cc1c2c(nn1C)CSCc1cc(n(C)n1)CSc1cc(c3ccccc3c1)OCCCc1c(C(=O)O)n(C)c3c-2c(Cl)ccc13 [AZD5991] + Cn1cnc2c(F)c(Nc3ccc(Br)cc3Cl)c(C(=O)NOCCO)cc21 [Selumetinib] (first compound max 1 µM, 7x7, partner max 3 µM) | 0.0356 | 0.0054 | 0.0108 | 0.102 | -0.0214 | -0.0489 | 0.0607 | -0.0456 | 0.0083 | 0.0286 | 0.111 | 0.0256 | -0.003 | 0.0295 | -0.0181 | -0.0155 | -0.0349 | 0.0143 | 0.0814 | 0.0248
12 | NC1(C(=O)N[C@@H](CCO)c2ccc(Cl)cc2)CCN(c2ncnc3[nH]ccc23)CC1 [Capivasertib] + CC(=O)c1c(C)c2cnc(Nc3ccc(N4CCNCC4)cn3)nc2n(C2CCCC2)c1=O [Palbociclib] (first compound max 10 µM, 7x7, partner max 10 µM) | -0.0345 | -0.0377 | -0.011 | -0.124 | -0.009 | -0.0671 | 0.006 | -0.0656 | -0.0479 | 0.0379 | -0.0739 | 0.0391 | 0.0043 | 0.0585 | 0.0157 | -0.0168 | -0.0396 | 0.0129 | 0.0918 | -0.0211
